Assay results as given in PubChem BioAssay (NCI).
“And” between values parts separate entries of the source, which are not always exact repeats. Identical values can stand only once.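 Cells were grown in 96-well plates and exposed to each compound for 48 hours at five concentrations; endpoints were interpolated linearly between bracketing concentrations, or set to the highest concentration if not reached. Here, GI50 denotes the concentration required for 50% inhibition of growth. At the TGI there is no net growth.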 Where a SMILES comes first, the peptide text is derived from it. [ ]: non-standard residue; d: D form. The star is where a group is joined. ξ: configuration not given here. X3 = COc1ccc(C(N*)c2ccc(OC)cc2)cc1; NMeF = CN[C@@H](Cc1ccccc1)C(=O)O; NMeD = CN[C@@H](CC(=O)O)C(=O)O; NMeV = CN[C@H](C(=O)O)C(C)C; ξNMeV = CNC(C(=O)O)C(C)C; Boc = CC(C)(C)OC(=O)*; ξNMeA = CNC(C)C(=O)O; ξV = CC(C)C(N)C(=O)O

Assays:
Assay in all cases: inhibition of tumour cell growth, NCI panel, 48 h
SK-MEL-5 melanoma = test system: SK-MEL-5 melanoma
KM12 colon = test system: KM12 colon
SF-295 CNS = test system: SF-295 CNS
SK-MEL-28 melanoma = test system: SK-MEL-28 melanoma
OVCAR-8 ovarian = test system: OVCAR-8 ovarian
SN12C renal = test system: SN12C renal
LOX IMVI melanoma = test system: LOX IMVI melanoma
NCI-H522 lung = test system: NCI-H522 lung
MOLT-4 leukemia = test system: MOLT-4 leukemia
HT29 colon = test system: HT29 colon

Row | Structure (SMILES) | GI50 (SK-MEL-5 melanoma) | TGI (SK-MEL-5 melanoma) | GI50 (KM12 colon) | TGI (KM12 colon) | TGI (SF-295 CNS) | GI50 (SK-MEL-28 melanoma) | TGI (SK-MEL-28 melanoma) | GI50 (OVCAR-8 ovarian) | TGI (OVCAR-8 ovarian) | GI50 (SN12C renal) | TGI (SN12C renal) | GI50 (LOX IMVI melanoma) | TGI (LOX IMVI melanoma) | GI50 (NCI-H522 lung) | TGI (NCI-H522 lung) | GI50 (MOLT-4 leukemia) | TGI (MOLT-4 leukemia) | TGI (HT29 colon) | GI50 (SF-295 CNS) | GI50 (HT29 colon)
1 | COc1ccc(C(NC(=O)C[C@@H](C(=O)N(C)C(C)C(=O)O)N(C)C(=O)[C@@H]2CCCN2C(=O)[C@H](C(C)C)N(C)C(=O)C(C(C)C)N(C)C(=O)[C@H](Cc2ccccc2)N(C)C(=O)C(NC(=O)OC(C)(C)C)C(C)C)c2ccc(OC)cc2)cc1 (stereo partly specified) (Boc-[ξV][NMeF][ξNMeV][NMeV]P[NMeD](X3)[ξNMeA]-OH) | 15.2 µM | 12.7 µM and 28.5 µM | 17.5 µM | 15.2 µM and 34.1 µM | 30.2 µM and 32.8 µM | 17.1 µM | 13.6 µM and 30.9 µM | 19.1 µM | 37.5 µM and 33.7 µM | 19.1 µM | 37.5 µM and 38.9 µM | 17.2 µM | 15.7 µM and 31.2 µM | 17.5 µM | 27.4 µM and 31.3 µM | 17 µM | 19.3 µM and 43.7 µM | 37.2 µM and 32.4 µM | – | –
2 | O=C(O)c1ccc2c(c1C(=O)O)C(=O)OC2(c1ccc(O)cc1)c1ccc(O)cc1 | – | > 100 µM | – | > 100 µM | > 100 µM | – | > 100 µM | – | > 100 µM | – | > 100 µM | – | > 100 µM | – | > 100 µM | – | > 100 µM | > 100 µM | – | –
3 | CCN(Cc1ccc(F)cc1)c1cc(Cl)c(CO)c(Cl)c1 | 13.5 µM | 26.5 µM | – | – | 25.6 µM | 17.3 µM | 31.5 µM | 14.3 µM | 31.3 µM | 13.3 µM | 26.8 µM | 14.7 µM | 29.3 µM | 10.8 µM | 25.7 µM | 16.6 µM | 44 µM | 33.2 µM | 10.9 µM | 16.2 µM
4 | NC(=O)c1ccccc1NC(=O)C(=O)C(C(=O)c1ccc(Cl)c(Cl)c1)C1OC(=O)c2ccccc21 (stereo unspecified) | – | – | – | > 100 µM | – | – | – | – | > 100 µM | – | > 100 µM | – | – | – | – | – | > 100 µM | > 100 µM | – | –
5 | COc1ccc(/C=N/NC(=O)c2cccc3cc[nH]c23)cc1O | 1.27 µM | > 80.7 µM | 0.883 µM | > 100 µM | > 24.8 µM | 6.46 µM | > 100 µM | 6.2 µM | > 100 µM | 0.493 µM | > 40.9 µM | 1.3 µM | > 100 µM | 2.26 µM | > 100 µM | 2.84 µM | > 66.2 µM | > 100 µM | 0.736 µM | 4.32 µM
6 | N#Cc1c[nH]n2c(N=Nc3ccc(Cl)cc3)c(O)nc12 | 20.8 µM | 43.7 µM | 29.4 µM | > 100 µM | > 100 µM | 44.4 µM | > 100 µM | 32 µM | > 100 µM | 24.1 µM | 57.3 µM | 28.8 µM | > 100 µM | 26.9 µM | > 100 µM | 33.7 µM | > 100 µM | > 100 µM | 30.1 µM | 50.2 µM
7 | CN(C)c1cc(NN=C(c2ccc(O)cc2)c2ccc(O)cc2)c([N+](=O)[O-])cc1[N+](=O)[O-] | 3.17 µM | 14.4 µM | 3.73 µM | 13.8 µM | 5.22 µM | 2.85 µM | 10.5 µM | 7.73 µM | 46.5 µM | 10.4 µM | 23.7 µM | 3.04 µM | 15.2 µM | 10.5 µM | 38.4 µM | 3.37 µM | 23.2 µM | 23.7 µM | 1.86 µM | 10 µM
